The nature of data set [1]: The drug is tested on Z-020 corresponding to rabbit gut metagenome with ENA study accession number: PRJEB37062 and ENA sample accession number: ERS12561819 for biotransformation under anaerobic condition. The drug concentrations were measured over 9 timepoints collected between 0 and 24 hours of incubation by liquid-chromatography-coupled mass spectrometry (LC–MS). The conditions noted are these: 2 µM.

Data set [2] in a line: The drug is tested on WLS-086 corresponding to human gut metagenome with ENA study accession number: PRJEB37062 and ENA sample accession number: ERS12561752 for biotransformation under anaerobic condition. The drug concentrations were measured over 9 timepoints collected between 0 and 24 hours of incubation by liquid-chromatography-coupled mass spectrometry (LC–MS). The conditions noted are these: 2 µM.

The conditions of data set [3]: human gut metagenome, 24 h, 2 µM.
For data set [4] the following is noted: human gut metagenome, 24 h, 2 µM. The source holds these as a separate data set.
For data set [5] the following is noted: human gut metagenome, 24 h, 2 µM. This is another data set of the same source.
For data set [6] the following is noted: human gut metagenome, 24 h, 2 µM. The source holds these as a separate data set.
A short description of data set [7]: The drug is tested on Z-014 corresponding to rat gut metagenome with ENA study accession number: PRJEB37062 and ENA sample accession number: ERS12561814 for biotransformation under anaerobic condition. The drug concentrations were measured over 9 timepoints collected between 0 and 24 hours of incubation by liquid-chromatography-coupled mass spectrometry (LC–MS). The conditions noted are these: 2 µM.

Data set [8] is described as follows: The drug is tested on WLS-069 corresponding to human gut metagenome with ENA study accession number: PRJEB37062 and ENA sample accession number: ERS12561748 for biotransformation under anaerobic condition. The drug concentrations were measured over 9 timepoints collected between 0 and 24 hours of incubation by liquid-chromatography-coupled mass spectrometry (LC–MS). The note with it: 2 µM.

For data set [9] the following is noted: human gut metagenome, 24 h, 2 µM. This is another data set of the same source.
For data set [10] the following is noted: human gut metagenome, 24 h, 2 µM. This is another data set of the same source.
Data set [11] in a line: The drug is tested on Z-027 corresponding to metagenome with ENA study accession number: PRJEB37062 and ENA sample accession number: ERS12561826 for biotransformation under anaerobic condition. The drug concentrations were measured over 9 timepoints collected between 0 and 24 hours of incubation by liquid-chromatography-coupled mass spectrometry (LC–MS). The conditions noted are these: 2 µM.

The nature of data set [12]: The drug is tested on Z-002 corresponding to rabbit gut metagenome with ENA study accession number: PRJEB37062 and ENA sample accession number: ERS12561802 for biotransformation under anaerobic condition. The drug concentrations were measured over 9 timepoints collected between 0 and 24 hours of incubation by liquid-chromatography-coupled mass spectrometry (LC–MS). The conditions noted are these: 2 µM.

The conditions of data set [13]: human gut metagenome, 24 h, 2 µM. This is another data set of the same source.
Data set [14] in a line: The drug is tested on Z-023 corresponding to metagenome with ENA study accession number: PRJEB37062 and ENA sample accession number: ERS12561822 for biotransformation under anaerobic condition. The drug concentrations were measured over 9 timepoints collected between 0 and 24 hours of incubation by liquid-chromatography-coupled mass spectrometry (LC–MS). The note with it: 2 µM.

Data set [15] in a line: The drug is tested on WLS-052 corresponding to human gut metagenome with ENA study accession number: PRJEB37062 and ENA sample accession number: ERS12561747 for biotransformation under anaerobic condition. The drug concentrations were measured over 9 timepoints collected between 0 and 24 hours of incubation by liquid-chromatography-coupled mass spectrometry (LC–MS). The conditions noted are these: 2 µM.

Data set [16] can be described thus: The drug is tested on Z-008 corresponding to metagenome with ENA study accession number: PRJEB37062 and ENA sample accession number: ERS12561808 for biotransformation under anaerobic condition. The drug concentrations were measured over 9 timepoints collected between 0 and 24 hours of incubation by liquid-chromatography-coupled mass spectrometry (LC–MS). The conditions noted are these: 2 µM.

The nature of data set [17]: The drug is tested on Z-003 corresponding to pig gut metagenome with ENA study accession number: PRJEB37062 and ENA sample accession number: ERS12561803 for biotransformation under anaerobic condition. The drug concentrations were measured over 9 timepoints collected between 0 and 24 hours of incubation by liquid-chromatography-coupled mass spectrometry (LC–MS). The conditions noted are these: 2 µM.

Data set [18] in a line: The drug is tested on WLS-007 corresponding to human gut metagenome with ENA study accession number: PRJEB37062 and ENA sample accession number: ERS12561742 for biotransformation under anaerobic condition. The drug concentrations were measured over 9 timepoints collected between 0 and 24 hours of incubation by liquid-chromatography-coupled mass spectrometry (LC–MS). The note with it: 2 µM.

Data set [19] is described as follows: The drug is tested on Z-019 corresponding to rat gut metagenome with ENA study accession number: PRJEB37062 and ENA sample accession number: ERS12561818 for biotransformation under anaerobic condition. The drug concentrations were measured over 9 timepoints collected between 0 and 24 hours of incubation by liquid-chromatography-coupled mass spectrometry (LC–MS). The conditions noted are these: 2 µM.

The nature of data set [20]: The drug is tested on Z-010 corresponding to metagenome with ENA study accession number: PRJEB37062 and ENA sample accession number: ERS12561810 for biotransformation under anaerobic condition. The drug concentrations were measured over 9 timepoints collected between 0 and 24 hours of incubation by liquid-chromatography-coupled mass spectrometry (LC–MS). The conditions noted are these: 2 µM.

SMILES strings stand for the structures.
Note: call rule not given here.

Take `CN(C)C(=O)Oc1cccc([N+](C)(C)C)c1.[Br-]` [NEOSTIGMINE BROMIDE]: the “Bacterial Biotransformation” value in data set [1], in data set [2], in data set [3], in [4], in data set [5] and in [6] was “Compound NOT metabolized” each time. Besides, the “Bacterial Biotransformation” value in data set [7] was “Compound NOT metabolized”; in [8], “Compound NOT metabolized”; in [9], “Compound NOT metabolized”; in data set [10], “Compound NOT metabolized”; in data set [11], “Compound NOT metabolized”; in data set [12], “Compound metabolized”. In addition, the “Bacterial Biotransformation” value was “Compound NOT metabolized” in data set [13]; “Compound NOT metabolized” in data set [14]; “Compound NOT metabolized” in [15]; “Compound NOT metabolized” in [16]; “Compound metabolized” in data set [17]; “Compound NOT metabolized” in data set [18]. The “Bacterial Biotransformation” value in [19] and in data set [20] was “Compound NOT metabolized” throughout.

With `CN[C@H]1CC[C@@H](c2ccc(Cl)c(Cl)c2)c2ccccc21` [SERTRALINE], the “Bacterial Biotransformation” value is given as “Compound metabolized” in [1]; “Compound metabolized” in data set [2]; “Compound metabolized” in data set [3]; “Compound NOT metabolized” in data set [4]; “Compound NOT metabolized” in [5]; “Compound metabolized” in data set [6]. Moreover, the “Bacterial Biotransformation” value in [7] is reported as “Compound NOT metabolized”; in [8] it was “Compound metabolized”; in data set [9], “Compound metabolized”; in [10], “Compound NOT metabolized”; in data set [11] it was “Compound metabolized”; in data set [12], “Compound NOT metabolized”. Further, the “Bacterial Biotransformation” value in data set [13] was “Compound metabolized”; in data set [14], “Compound metabolized”; in [15], “Compound metabolized”; in data set [16] it was “Compound NOT metabolized”; in data set [17], “Compound metabolized”; in data set [18], “Compound metabolized”. Moreover, the results for the “Bacterial Biotransformation” value in data set [19] and in data set [20] were “Compound NOT metabolized” and “Compound metabolized”, respectively.

`CCc1cccc2c3c([nH]c12)C(CC)(CC(=O)O)OCC3` (stereo not given) [ETODOLAC]: the “Bacterial Biotransformation” value in [1] is listed as “Compound NOT metabolized”; in data set [2], “Compound metabolized”; in [3], “Compound metabolized”; in data set [4] it was “Compound metabolized”; in data set [5], “Compound metabolized”; in data set [6], “Compound metabolized”. The “Bacterial Biotransformation” value is given as “Compound NOT metabolized” in data set [7]; “Compound metabolized” in [8]; “Compound metabolized” in data set [9]; “Compound metabolized” in data set [10]; “Compound NOT metabolized” in data set [11]; “Compound NOT metabolized” in data set [12]. Moreover, the “Bacterial Biotransformation” value in data set [13] is “Compound metabolized”; in [14] it was “Compound NOT metabolized”; in data set [15] it was “Compound metabolized”; in [16] it was “Compound NOT metabolized”; in data set [17] it was “Compound NOT metabolized”; in [18], “Compound metabolized”. Also, the “Bacterial Biotransformation” value in data set [19] and in data set [20] was “Compound NOT metabolized” in each case.

Regarding `COc1ccc([C@@H]2Sc3ccccc3N(CCN(C)C)C(=O)[C@@H]2OC(C)=O)cc1` [DILTIAZEM], the “Bacterial Biotransformation” value in [1] is “Compound metabolized”; in data set [2] it was “Compound metabolized”; in [3] it was “Compound metabolized”; in data set [4] it was “Compound NOT metabolized”; in [5], “Compound metabolized”; in data set [6], “Compound metabolized”. In addition, the “Bacterial Biotransformation” value was “Compound NOT metabolized” in [7]; “Compound metabolized” in data set [8]; “Compound NOT metabolized” in data set [9]; “Compound metabolized” in [10]; “Compound NOT metabolized” in data set [11]; “Compound metabolized” in data set [12]. Also, the “Bacterial Biotransformation” value in data set [13] is “Compound metabolized”; in data set [14], “Compound metabolized”; in data set [15], “Compound NOT metabolized”; in data set [16], “Compound NOT metabolized”; in data set [17], “Compound metabolized”; in [18], “Compound NOT metabolized”. For the same compound, the “Bacterial Biotransformation” value is given as “Compound NOT metabolized” in [19] and “Compound metabolized” in [20].

On to `O=C1CN2Cc3c(ccc(Cl)c3Cl)N=C2N1` [ANAGRELIDE], for which the “Bacterial Biotransformation” value is recorded as “Compound NOT metabolized” in data set [1]; “Compound metabolized” in data set [2]; “Compound metabolized” in data set [3]; “Compound NOT metabolized” in data set [4]; “Compound NOT metabolized” in [5]; “Compound metabolized” in data set [6]. Moreover, the “Bacterial Biotransformation” value was “Compound NOT metabolized” in data set [7]; “Compound metabolized” in [8]; “Compound NOT metabolized” in data set [9]; “Compound NOT metabolized” in data set [10]; “Compound NOT metabolized” in data set [11]; “Compound NOT metabolized” in data set [12]. Moreover, the “Bacterial Biotransformation” value in data set [13] is reported as “Compound metabolized”; in data set [14] it was “Compound metabolized”; in data set [15] it was “Compound metabolized”; in data set [16] it was “Compound NOT metabolized”; in [17], “Compound NOT metabolized”; in data set [18], “Compound metabolized”. For the same compound, the “Bacterial Biotransformation” value in data set [19] is on record as “Compound NOT metabolized”; in data set [20], “Compound metabolized”.

For the origin of these results see ChEMBL document CHEMBL5724914, “Linking interpersonal differences in gut microbiota composition and drug biotransformation activity” (2024).
